In patent US11142527B2, “Dihydropyrimidine compounds and uses thereof in medicine” (SUNSHINE LAKE PHARMA CO., LTD., priority 2017, dated 2021) one finds EC50 and CC50 data, which are given here for 15 molecules.

pEC50: −log10 of the molar value.

The first series deals with HBV. Briefly: Test of anti HBV activity in vitro (viral DNA by qPCR). In kind it is cell-based. The note with it: Hepatitis B virus; HepG2.2.15 cells, viral DNA in cell culture supernatant by qPCR; read-out: EC50 values of the compound of the invention on viral replication. The method, then:
Test 1: Test Method of Calculating Anti HBV EC50
HBV Cell Line and Culture Conditions
HepG2.2.15 (SELLS, PNAS, 1987 and SELLS, JV, 1988) chromosomes have an integrated complete HBV genome, and stably express viral RNA and viral protein. HepG2.2.15 cells can secrete mature HBV particles, HBsAg and HBeAg, to medium. HepG2.2.15 cells were cultured in DMEM containing 10% fetal bovine serum, 100 U/mL penicillin, 100 U/mL streptomycin, 1% non essential amino acid, 1 mM sodium pyruvate and 300 μg/mL G418.
Viral particles DNA secreted from HepG2.2.15 cells can be quantified by qPCR, and the effect of the compound on viral replication can be detected.
Test of Anti HBV Activity In Vitro
8000 HepG 2.2.15 cells per well were seeded into a 96-well plate, the plate was cultured at 37° C. and 5% CO2 for 3 days till the cells grew to full wells. Old liquid medium can be removed and replaced with new medium (200 μL) on day 0.
Formulating the compound and treating the cells in the experiment of anti virus: the compound was dissolved in DMSO to a concentration of 30 mM, and then the compound solution was diluted with DMSO to a concentration of 800 μM, and then eight dilutions at 4 fold were performed, the highest concentration is 800 μM. The serial diluted compound was added to the above plate at 1 μL per well, the highest final concentration in the experiment is 4 μM (200 fold dilution). TDF (tenofovir dipiroxil fumarate, Selleck, Cat S1400) has a highest concentration of 4 μM as a positive control. 1 μL of DMSO was added in to the […] at a final concentration of 0.5%, TDF was added in to the […] at a final concentration of 1 μM.
Detection of Viral Genomic DNA by aPCR
Primer: HBV-For-202, […]; HBV-Rev-315, […]. Copies of virus can be calculated using a standard curve plotted by using plasmid containing HBV genome and using SYBR Premix Ex Taq II—Takara DRR081S kit and 1 μL cell culture supernatant as a template. EC50 values of the compound on viral replication were calculated by a four parametric nonlinear regression model using Graphpad Prism 5 software to manage concentration—viral copy number.
Usually pEC50 stands for −log10 of the EC50, conventionally taken in molar units. On to `COC(=O)C1=C(CN2CCN3C(=O)N(c4ccc(Oc5ccc(C(=O)O)cc5)nc4)C[C@@H]3C2)NC(c2nccs2)=N[C@H]1c1ccc(F)cc1Cl` [Example 7, 4-((5-((S)-7-(((R)-6-(2-chloro-4-fluorophenyl)-5-(methoxycarbonyl)-2-(thiazol-2-yl)-3,6-dihydropyrimidin-4-yl)methyl)-3-oxohexahydroimidazo[1,5-a]pyrazin-2(3H)-yl)pyridin-2-yl)oxy)benzoic acid], for which the pEC50 was 8.06.
Consider `COC(=O)C1=C(CN2CCN3C(=O)N(c4ccc(N5CCOC(CC(=O)O)C5)cc4)C[C@@H]3C2)NC(c2nccs2)=N[C@H]1c1ccc(F)cc1Cl` (stereo partly drawn) [Example 76, 2-(4-(4-((S)-7-(((R)-6-(2-chloro-4-fluorophenyl)-5-(methoxycarbonyl)-2-(thiazol-2-yl)-3,6-dihydropyrimidin-4-yl)methyl)-3-oxohexahydroimidazo[1,5-a]pyrazin-2(3H)-yl)phenyl)morpholin-2-yl)acetic acid], for which the negative logarithm of the EC50 (pEC50) is 8.27.
Same read-out and setting: as for `COC(=O)C1=C(CN2CCN3C(=O)N(c4ccc(-c5ccc(C(=O)O)cc5F)cc4F)C[C@@H]3C2)NC(c2nccs2)=N[C@H]1c1ccc(F)cc1Cl` [Example 120], the figure is 7.59.
On the same count and under the same terms, as for `COC(=O)C1=C(CN2CCN3C(=O)N(c4nc(-c5ccc(CC(=O)O)cc5)cs4)C[C@@H]3C2)NC(c2nccs2)=N[C@H]1c1ccc(F)cc1Cl` [Example 134, 2-(4-(2-((S)-7-(((R)-6-(2-chloro-4-fluorophenyl)-5-(methoxycarbonyl)-2-(thiazol-2-yl)-3,6-dihydropyrimidin-4-yl)methyl)-3-oxohexahydroimidazo[1,5-a]pyrazin-2(3H)-yl)thiazol-4-yl)phenyl)acetic acid], the figure is 8.40; as for `COC(=O)C1=C(CN2CCN3C(=O)N(c4ccc(Oc5ccc(CCC(=O)O)cc5F)cc4F)C[C@@H]3C2)NC(c2nccs2)=N[C@H]1c1ccc(F)cc1Cl` [Example 101, 3-(4-(4-((S)-7-(((R)-6-(2-chloro-4-fluorophenyl)-5-(methoxycarbonyl)-2-(thiazol-2-yl)-3,6-dihydropyrimidin-4-yl)methyl)-3-oxohexahydroimidazo[1,5-a]pyrazin-2(3H)-yl)-3-fluorophenoxy)-3-fluorophenyl)propanoic acid], 7.83.
The same measure, in the same setting: under `COC(=O)C1=C(CN2CCN3C(=O)N(c4ccc(-c5ccc(C(=O)O)cc5F)cc4)C[C@@H]3C2)NC(c2nccs2)=N[C@H]1c1ccc(F)cc1Cl` [Example 115, 4′-((S)-7-(((R)-6-(2-chloro-4-fluorophenyl)-5-(methoxycarbonyl)-2-(thiazol-2-yl)-3,6-dihydropyrimidin-4-yl)methyl)-3-oxohexahydroimidazo[1,5-a]pyrazin-2(3H)-yl)-2-fluoro-[1,1′-biphenyl]-4-carboxylic acid] stands 7.76; under `COC(=O)C1=C(CN2CCN3C(=O)N(c4ccc(-c5ccc(C(=O)O)c(F)c5)cc4F)C[C@@H]3C2)NC(c2nccs2)=N[C@H]1c1ccc(F)cc1Cl` [Example 121, 4′-((S)-7-(((R)-6-(2-chloro-4-fluorophenyl)-5-(methoxycarbonyl)-2-(thiazol-2-yl)-3,6-dihydropyrimidin-4-yl)methyl)-3-oxohexahydroimidazo[1,5-a]pyrazin-2(3H)-yl)-3,3′-difluoro-[1,1′-biphenyl]-4-carboxylic acid], 7.44.
Consider `COC(=O)C1=C(CN2CCN3C(=O)N(c4ccc(-c5nc(C6CCCCC6)c[nH]5)cc4)C[C@@H]3C2)NC(c2nccs2)=N[C@H]1c1ccc(F)cc1Cl` [Example 110, (R)-methyl 4-(2-chloro-4-fluorophenyl)-6-(((S)-2-(4-(5-cyclohexyl-1H-imidazol-2-yl)phenyl)-3-oxohexahydroimidazo[1,5-a]pyrazin-7(1H)-yl)methyl)-2-(thiazol-2-yl)-1,4-dihydropyrimidine-5-carboxylate], for which the pEC50 is 7.52.
On the same count and under the same terms, as for `COC(=O)C1=C(CN2CCN3C(=O)N(CC#Cc4ccc(C(=O)O)c(OC)c4)C[C@@H]3C2)NC(c2nccs2)=N[C@H]1c1ccc(F)cc1Cl` [Example 52, 4-(3-((S)-7-(((R)-6-(2-chloro-4-fluorophenyl)-5-(methoxycarbonyl)-2-(thiazol-2-yl)-3,6-dihydropyrimidin-4-yl)methyl)-3-oxohexahydroimidazo[1,5-a]pyrazin-2(3H)-yl)prop-1-yn-1-yl)-2-methoxybenzoic acid], the figure is 7.38; as for `COC(=O)C1=C(CN2CCN3C(=O)N(c4ccc(N5CCC(C(=O)O)CC5)cc4)C[C@@H]3C2)NC(c2nccs2)=N[C@H]1c1ccc(F)cc1Cl` [Example 21, 1-(4-((S)-7-(((R)-6-(2-chloro-4-fluorophenyl)-5-(methoxycarbonyl)-2-(thiazol-2-yl)-3,6-dihydropyrimidin-4-yl)methyl)-3-oxohexahydroimidazo[1,5-a]pyrazin-2(3H)-yl)phenyl) piperidine-4-carboxylic acid], 8.30.
Same read-out and setting: as for `COC(=O)C1=C(CN2CCN3C(=O)N(CC#Cc4ccc(C(=O)O)cc4OC)C[C@@H]3C2)NC(c2nccs2)=N[C@H]1c1ccc(F)cc1Cl` [Example 53, 4-(3-((S)-7-(((R)-6-(2-chloro-4-fluorophenyl)-5-(methoxycarbonyl)-2-(thiazol-2-yl)-3,6-dihydropyrimidin-4-yl)methyl)-3-oxohexahydroimidazo[1,5-a]pyrazin-2(3H)-yl)prop-1-yn-1-yl)-3-methoxybenzoic acid], the figure is 7.47.
Same read-out and setting: under `COC(=O)C1=C(CN2CCN3C(=O)N(c4ccc(-c5ccc(C(=O)O)cc5F)nc4)C[C@@H]3C2)NC(c2nccs2)=N[C@H]1c1ccc(F)cc1Cl` [Example 124, 4-(5-((S)-7-(((R)-6-(2-chloro-4-fluorophenyl)-5-(methoxycarbonyl)-2-(thiazol-2-yl)-3,6-dihydropyrimidin-4-yl)methyl)-3-oxohexahydroimidazo[1,5-a]pyrazin-2(3H)-yl)pyridin-2-yl)-3-fluorobenzoic acid] stands 7.32; under `COC(=O)C1=C(CN2CCN3C(=O)N(c4ccc(C5(C(=O)O)CCCC5)cc4)C[C@@H]3C2)NC(c2nccs2)=N[C@H]1c1ccc(F)cc1Cl` [Example 29, 1-(4-((S)-7-(((R)-6-(2-chloro-4-fluorophenyl)-5-(methoxycarbonyl)-2-(thiazol-2-yl)-3,6-dihydroprimidin-4-yl)methyl)-3-oxohexahydroimidazo[1,5-a]pyrazin-2(3H)-yl)phenyl) cyclopentane carboxylic acid], 8.22.

System in another series: not listed separately
Nature of the series: Cytotoxicity test with CellTiter Glo. The class given is cell-based. To be noted: human, HepG2.2.15 cells, highest concentration 150 μM, read-out: CC50 values of the compounds of the invention. The method, then:
Test 2: Cytotoxicity and Selectivity Index
Methods of Testing Cytotoxicity and Selectivity Index
The serial diluted compound was added to a 384 wells plate at 50 μL HepG2.2.15 cell per well (3000 cells per well), the highest final concentration in the experiment is 150 μM (200 fold dilution). The plate was cultured at 37° C. in an incubator with CO2 for 4 days, and cytotoxicity of the compound was detected using CellTiter Glo agent.
The cytotoxicity of the compound was calculated using the following formulate, cytotoxicity (%)=100−(detection value/mean of DMSO control wells values×100) CC50 values were calculated by a four parametric nonlinear regression model using Graphpad Prism 5 software to manage concentration−cytotoxicity (%).
By CC50 is commonly meant the concentration that lowers cell viability or growth by half. In the case of `COC(=O)C1=C(CN2CCN3C(=O)N(c4cncc(Oc5ccc(C(=O)O)cc5F)c4)C[C@@H]3C2)NC(c2nccs2)=N[C@H]1c1ccc(F)cc1Cl` [Example 81, 4-((5-((S)-7-(((R)-6-(2-chloro-4-fluorophenyl)-5-(methoxycarbonyl)-2-(thiazol-2-yl)-3,6-dihydropyrimidin-4-yl)methyl)-3-oxohexahydroimidazo[1,5-a]pyrazin-2(3H)-yl)pyridin-3-yl)oxy)-3-fluorobenzoic acid], the CC50 at 4 days is greater than 150 µM.
On the same count and under the same terms, under `COC(=O)C1=C(CN2CCN3C(=O)N(c4ccc(Oc5ccc(C(=O)NCC(C)(C)C(=O)O)cc5)cc4)C[C@@H]3C2)NC(c2nccs2)=N[C@H]1c1ccc(F)cc1Cl` [Example 75, 3-(4-(4-((S)-7-(((R)-6-(2-chloro-4-fluorophenyl)-5-(methoxycarbonyl)-2-(thiazol-2-yl)-3,6-dihydropyrimidin-4-yl)methyl)-3-oxohexahydroimidazo[1,5-a]pyrazin-2(3H)-yl)phenoxy)benzamido)-2,2-dimethylpropanoic acid] stands greater than 150 µM.
